PubChem BioAssay AID1259407 (Chemical Carcinogenesis Research Information System (CCRIS), 2018)
Activity calls are given as the source filed them. How the calls were made is not given here.

Test system: CCRIS mutagenicity, Ames/micronucleus/aberration tests
Assay: CCRIS mutagenicity studies

O=NO
mutagenic call (End Point: IN VIVO MICRONUCLEUS, Test System: BONE MARROW POLYCHROMATIC ERYTHROCYTES, Species: MOUSE, Strain/Sex: DDY/MALE, Route: IP): inactive; negative | mutagenic call (End Point: IN VIVO MICRONUCLEUS, Test System: BONE MARROW POLYCHROMATIC ERYTHROCYTES, Species: MOUSE, Strain/Sex: DDY/MALE, Route: ORAL): inactive; negative | mutagenic call (End Point: In vitro chromosomal aberrations, Test System: Chinese hamster lung CHL/IU cells, Metabolic Activation: None): inactive; negative | mutagenic call (Test System: AMES SALMONELLA TYPHIMURIUM, Strain/Indicator: DJ400, Metabolic Activation: NONE, Method: PREINCUBATION): inactive; negative | mutagenic call (Test System: AMES SALMONELLA TYPHIMURIUM, Strain/Indicator: DJ400, Metabolic Activation: NONE, Method: STANDARD PLATE): inactive; negative | mutagenic call (Test System: AMES SALMONELLA TYPHIMURIUM, Strain/Indicator: DJ400, Metabolic Activation: RAT, LIVER, S-9, AROCLOR 1254, Method: PREINCUBATION): inactive; negative | mutagenic call (Test System: AMES SALMONELLA TYPHIMURIUM, Strain/Indicator: DJ400, Metabolic Activation: RAT, LIVER, S-9, AROCLOR 1254, Method: STANDARD PLATE): inactive; negative | mutagenic call (Test System: AMES SALMONELLA TYPHIMURIUM, Strain/Indicator: DJ460, Metabolic Activation: NONE, Method: PREINCUBATION): inactive; negative | mutagenic call (Test System: AMES SALMONELLA TYPHIMURIUM, Strain/Indicator: DJ460, Metabolic Activation: NONE, Method: STANDARD PLATE): inactive; negative | mutagenic call (Test System: AMES SALMONELLA TYPHIMURIUM, Strain/Indicator: DJ460, Metabolic Activation: RAT, LIVER, S-9, AROCLOR 1254, Method: PREINCUBATION): inactive; negative | mutagenic call (Test System: AMES SALMONELLA TYPHIMURIUM, Strain/Indicator: DJ460, Metabolic Activation: RAT, LIVER, S-9, AROCLOR 1254, Method: STANDARD PLATE): inactive; negative | mutagenic call (Test System: AMES SALMONELLA TYPHIMURIUM, Strain/Indicator: TA97, Metabolic Activation: NONE, Method: STANDARD PLATE): inactive; negative | mutagenic call (Test System: AMES SALMONELLA TYPHIMURIUM, Strain/Indicator: TA97, Metabolic Activation: RAT, LIVER, S-9, AROCLOR 1254, Method: STANDARD PLATE): inactive; negative | mutagenic call (Test System: AMES SALMONELLA TYPHIMURIUM, Strain/Indicator: TA98, Metabolic Activation: HAMSTER LIVER S-9, AROCLOR 1254 (30%), Method: PREINCUBATION): inactive; negative | mutagenic call (Test System: AMES SALMONELLA TYPHIMURIUM, Strain/Indicator: TA98, Metabolic Activation: HAMSTER, LIVER, S-9, AROCLOR 1254 (30%), Method: PREINCUBATION): inactive; negative | mutagenic call (Test System: AMES SALMONELLA TYPHIMURIUM, Strain/Indicator: TA98, Metabolic Activation: NONE, Method: PREINCUBATION): inactive; negative | mutagenic call (Test System: AMES SALMONELLA TYPHIMURIUM, Strain/Indicator: TA98, Metabolic Activation: NONE, Method: STANDARD PLATE): inactive; negative | mutagenic call (Test System: AMES SALMONELLA TYPHIMURIUM, Strain/Indicator: TA98, Metabolic Activation: RAT LIVER S-9, AROCLOR 1254 (30%), Method: PREINCUBATION): inactive; negative | mutagenic call (Test System: AMES SALMONELLA TYPHIMURIUM, Strain/Indicator: TA98, Metabolic Activation: RAT, LIVER, S-9, AROCLOR 1254 (30%), Method: PREINCUBATION): inactive; negative | mutagenic call (Test System: AMES SALMONELLA TYPHIMURIUM, Strain/Indicator: TA98, Metabolic Activation: RAT, LIVER, S-9, AROCLOR 1254, Method: STANDARD PLATE): inactive; negative | mutagenic call (Test System: AMES SALMONELLA TYPHIMURIUM, Strain/Indicator: TA98, Metabolic Activation: RAT, LIVER, S-9, Method: STANDARD PLATE): inactive; negative | mutagenic call (Test System: AMES SALMONELLA TYPHIMURIUM, Strain/Indicator: TA100, Metabolic Activation: HAMSTER LIVER S-9, AROCLOR 1254 (30%), Method: PREINCUBATION): active; positive | mutagenic call (Test System: AMES SALMONELLA TYPHIMURIUM, Strain/Indicator: TA100, Metabolic Activation: HAMSTER, LIVER, S-9, AROCLOR 1254 (30%), Method: PREINCUBATION): active; positive | mutagenic call (Test System: AMES SALMONELLA TYPHIMURIUM, Strain/Indicator: TA100, Metabolic Activation: NONE, Method: PREINCUBATION): active; positive | mutagenic call (Test System: AMES SALMONELLA TYPHIMURIUM, Strain/Indicator: TA100, Metabolic Activation: NONE, Method: STANDARD PLATE): active; positive | mutagenic call (Test System: AMES SALMONELLA TYPHIMURIUM, Strain/Indicator: TA100, Metabolic Activation: RAT LIVER S-9, AROCLOR 1254 (30%), Method: PREINCUBATION): active; positive | mutagenic call (Test System: AMES SALMONELLA TYPHIMURIUM, Strain/Indicator: TA100, Metabolic Activation: RAT, LIVER, S-9, AROCLOR 1254 (30%), Method: PREINCUBATION): active; positive | mutagenic call (Test System: AMES SALMONELLA TYPHIMURIUM, Strain/Indicator: TA100, Metabolic Activation: RAT, LIVER, S-9, AROCLOR 1254, Method: PREINCUBATION): active; positive | mutagenic call (Test System: AMES SALMONELLA TYPHIMURIUM, Strain/Indicator: TA100, Metabolic Activation: RAT, LIVER, S-9, AROCLOR 1254, Method: STANDARD PLATE): active; positive | mutagenic call (Test System: AMES SALMONELLA TYPHIMURIUM, Strain/Indicator: TA100, Metabolic Activation: RAT, LIVER, S-9, Method: STANDARD PLATE): active; positive | mutagenic call (Test System: AMES SALMONELLA TYPHIMURIUM, Strain/Indicator: TA102, Metabolic Activation: NONE, Method: PREINCUBATION): inactive; negative | mutagenic call (Test System: AMES SALMONELLA TYPHIMURIUM, Strain/Indicator: TA102, Metabolic Activation: NONE, Method: STANDARD PLATE): inactive; negative | mutagenic call (Test System: AMES SALMONELLA TYPHIMURIUM, Strain/Indicator: TA102, Metabolic Activation: RAT, LIVER, S-9, AROCLOR 1254, Method: PREINCUBATION): inactive; negative | mutagenic call (Test System: AMES SALMONELLA TYPHIMURIUM, Strain/Indicator: TA102, Metabolic Activation: RAT, LIVER, S-9, AROCLOR 1254, Method: STANDARD PLATE): inactive; negative | mutagenic call (Test System: AMES SALMONELLA TYPHIMURIUM, Strain/Indicator: TA104, Metabolic Activation: RAT, LIVER, S-9, AROCLOR 1254, Method: PREINCUBATION): active; positive | mutagenic call (Test System: AMES SALMONELLA TYPHIMURIUM, Strain/Indicator: TA1530, Metabolic Activation: NONE, Method: PREINCUBATION): active; positive | mutagenic call (Test System: AMES SALMONELLA TYPHIMURIUM, Strain/Indicator: TA1530, Metabolic Activation: NONE, Method: STANDARD PLATE): active; positive | mutagenic call (Test System: AMES SALMONELLA TYPHIMURIUM, Strain/Indicator: TA1530, Metabolic Activation: RAT, LIVER, S-9, AROCLOR 1254, Method: PREINCUBATION): active; positive | mutagenic call (Test System: AMES SALMONELLA TYPHIMURIUM, Strain/Indicator: TA1530, Metabolic Activation: RAT, LIVER, S-9, AROCLOR 1254, Method: STANDARD PLATE): active; positive | mutagenic call (Test System: AMES SALMONELLA TYPHIMURIUM, Strain/Indicator: TA1535, Metabolic Activation: NONE, Method: PREINCUBATION): active; positive | mutagenic call (Test System: AMES SALMONELLA TYPHIMURIUM, Strain/Indicator: TA1535, Metabolic Activation: NONE, Method: STANDARD PLATE): active; positive | mutagenic call (Test System: AMES SALMONELLA TYPHIMURIUM, Strain/Indicator: TA1535, Metabolic Activation: RAT, LIVER, S-9, AROCLOR 1254, Method: PREINCUBATION): active; positive | mutagenic call (Test System: AMES SALMONELLA TYPHIMURIUM, Strain/Indicator: TA1535, Metabolic Activation: RAT, LIVER, S-9, AROCLOR 1254, Method: STANDARD PLATE): active; positive | mutagenic call (Test System: AMES SALMONELLA TYPHIMURIUM, Strain/Indicator: TA1535, Metabolic Activation: RAT, LIVER, S-9, Method: STANDARD PLATE): active; positive | mutagenic call (Test System: AMES SALMONELLA TYPHIMURIUM, Strain/Indicator: TA1537, Metabolic Activation: NONE, Method: STANDARD PLATE): inactive; negative | mutagenic call (Test System: AMES SALMONELLA TYPHIMURIUM, Strain/Indicator: TA1537, Metabolic Activation: RAT, LIVER, S-9, AROCLOR 1254, Method: STANDARD PLATE): inactive; negative | mutagenic call (Test System: AMES SALMONELLA TYPHIMURIUM, Strain/Indicator: TA1538, Metabolic Activation: NONE, Method: STANDARD PLATE): inactive; negative | mutagenic call (Test System: AMES SALMONELLA TYPHIMURIUM, Strain/Indicator: TA1538, Metabolic Activation: RAT, LIVER, S-9, AROCLOR 1254, Method: STANDARD PLATE): inactive; negative | mutagenic call (Test System: AMES SALMONELLA TYPHIMURIUM, Strain/Indicator: TA1538, Metabolic Activation: RAT, LIVER, S-9, Method: STANDARD PLATE): inactive; negative | mutagenic call (Test System: AMES SALMONELLA TYPHIMURIUM, Strain/Indicator: YG1024, Metabolic Activation: NONE, Method: PREINCUBATION): inactive; negative | mutagenic call (Test System: AMES SALMONELLA TYPHIMURIUM, Strain/Indicator: YG1024, Metabolic Activation: NONE, Method: STANDARD PLATE): inactive; negative | mutagenic call (Test System: AMES SALMONELLA TYPHIMURIUM, Strain/Indicator: YG1024, Metabolic Activation: RAT, LIVER, S-9, AROCLOR 1254, Method: PREINCUBATION): inactive; negative | mutagenic call (Test System: AMES SALMONELLA TYPHIMURIUM, Strain/Indicator: YG1024, Metabolic Activation: RAT, LIVER, S-9, AROCLOR 1254, Method: STANDARD PLATE): inactive; negative | mutagenic call (Test System: CHINESE HAMSTER V-79, Strain/Indicator: V-79/6-THIOGUANINE, Metabolic Activation: NONE): active; positive | mutagenic call (Test System: E. COLI, Strain/Indicator: WP2, Metabolic Activation: NONE, Method: STANDARD PLATE): inactive; negative | mutagenic call (Test System: E. COLI, Strain/Indicator: WP2, Metabolic Activation: RAT, LIVER, S-9, AROCLOR 1254, Method: STANDARD PLATE): inactive; negative | mutagenic call (Test System: E.COLI, Strain/Indicator: WP2UVRA/PKM101, Metabolic Activation: NONE, Method: PREINCUBATION): inactive; negative | mutagenic call (Test System: E.COLI, Strain/Indicator: WP2UVRA/PKM101, Metabolic Activation: RAT LIVER S-9, PHENOBARBITAL AND 5,6-BENZOFLAVONE, Method: PREINCUBATION): inactive; negative | mutagenic call (Test System: MOUSE LYMPHOMA, Strain/Indicator: L5178Y (TK+/TK-), Metabolic Activation: NONE, Method: SUSPENSION/PLATE): active; positive
